Consider eight compounds from ChEMBL document CHEMBL1201862, “PubChem BioAssay data set” (2004).

The structures appear in SMILES notation. The source made the active and inactive calls. A value given as a limit tells only on which side of the number the result lay.

Test [1] is described as follows: Luminescence Cell-Based Dose Response HTS to Identify Inhibitors of 5'UTR Stem-Loop Driven Prion Protein mRNA Translation in H4 Neuroglioblastoma Cells. [Related pubchem assays: 1827 (Project Summary), 1813 (Primary HTS)]. It counts as functional.
Test [2] relates to A-375. Nature of the test: MITF: Counter assay: A375 proliferation Measured in Cell-Based System Using Plate Reader - 2084-03_Inhibitor_Dose_DryPowder_Activity. [Related pubchem assays (depositor defined):AID488944]. It counts as functional. As to conditions: Homo sapiens.
Test [3] can be described thus: inhibitors of SNCA 5'UTR-driven reporter translation, confirmation, H4 neuroglioma cells, luminescence (AID 1988). It counts as functional, cell-based.
A short description of test [4]: inhibitors of firefly luciferase expression or activity, dose response, H4 neuroglioma cells, luminescence (AID 1990). The class given is functional, cell-based.
Test [5] in a line: NIH-3T3 fibroblast cytotoxicity, dose response, cytotoxicity control, cell-based, fluorescence, Alamar Blue, secondary assay (AID 2327).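 Further: NIH-3T3 mouse fibroblasts cultured with fluconazole at 8 µg/mL.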 It counts as functional.
Test [6] has as its target Beta-2 adrenergic receptor (Homo sapiens, UniProt P07550). Briefly: beta2AR agonists driving receptor internalization, dose response, cell-based, FAP fluorogen, flow cytometry, cherry pick 1 (AID 588763). It counts as functional. (A flow cytometer gives signals particle by particle.)
Test [7] can be described thus: C. albicans growth with fluconazole, confirmation, fluorescence, retest (AID 2467). It counts as functional, cell-based.
Test [8] concerns the target CAAX prenyl protease 2 (Saccharomyces cerevisiae S288c, UniProt Q03530). The class given is biochemical.
For test [9], the target named is CAAX prenyl protease 2 (Homo sapiens, UniProt Q9Y256). Briefly: human Rce1 protease inhibitors, dose response, biochemical, yeast membranes, quenched-peptide fluorescence, cherry-pick (AID 588849).
The nature of test [10]: microbe, parasite or virus in culture. The class given is functional. As to conditions: Mycobacterium tuberculosis.
In test [11] the target is ATP-dependent molecular chaperone HSP82 (Candida albicans (strain WO-1) (Yeast), UniProt C4YTQ8). Briefly: loss of DOC-induced GRE-beta-galactosidase reporter signal, dose response, Hsp90 inhibitor project, S. cerevisiae, luminescence (AID 2400).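 Further: beta-galactosidase luminescence from glucocorticoid response element reporter as proxy for Hsp90 function; inhibitor potency where signal loss means Hsp90 inhibition.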 The class given is functional, cell-based.
Test [12] has as its target Serine/threonine-protein phosphatase (Candida dubliniensis (strain CD36 / CBS 7987 / NCPF 3949 / NRRLY-17841) (Yeast), UniProt B9W6M3). Briefly: calcineurin pathway inhibitors in yeast reporter, dose response, S. cerevisiae, CDRE-lacZ, luminescence, secondary (AID 2388).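 Further: yeast reporter cells carrying a calcineurin-responsive lacZ construct stimulated with calcium chloride; luminescent beta-galactosidase reporter signal in whole cells rather than isolated phosphatase activity; potency for inhibition where a drop in reporter signal means calcineurin blockade.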 It counts as functional, cell-based.
The target of test [13] is T1, Nuclear receptor subfamily 0 group B member 1 (Homo sapiens, UniProt P51843).
T1 sequence (P51843 whole entry): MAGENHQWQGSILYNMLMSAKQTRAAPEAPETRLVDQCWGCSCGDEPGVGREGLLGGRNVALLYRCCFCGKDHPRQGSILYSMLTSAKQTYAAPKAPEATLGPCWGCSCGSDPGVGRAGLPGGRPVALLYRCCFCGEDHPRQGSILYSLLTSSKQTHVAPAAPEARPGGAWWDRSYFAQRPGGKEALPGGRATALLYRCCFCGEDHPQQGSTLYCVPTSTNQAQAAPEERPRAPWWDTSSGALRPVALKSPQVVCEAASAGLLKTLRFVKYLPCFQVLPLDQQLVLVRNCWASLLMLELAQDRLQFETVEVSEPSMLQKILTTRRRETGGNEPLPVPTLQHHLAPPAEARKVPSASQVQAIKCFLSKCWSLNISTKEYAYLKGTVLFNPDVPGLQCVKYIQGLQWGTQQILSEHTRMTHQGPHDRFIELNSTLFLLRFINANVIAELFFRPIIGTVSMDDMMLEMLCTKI
Nature of the test: Luminescence-based cell-based high throughput dose response assay for inhibitors of the orphan nuclear receptor subfamily 0, group B, member 1 (DAX1; NR0B1). [Related pubchem assays (depositor defined):AID504766, AID504790]. The class given is functional.

In test [14] the test system is HEK293. Nature of the test: cells. The note with it: Homo sapiens. The class given is functional, cell-based.
The target of test [15] is Beta-galactosidase (Escherichia coli, UniProt Q8VNN2). Briefly: PubChem AID 485352. The class given is functional.
The target of test [16] is Type-1 angiotensin II receptor (Homo sapiens, UniProt P30556). Briefly: AT1 receptor antagonists, dose response, selectivity assay for APJ receptor antagonist project, cell-based, uHTS hits (AID 463214).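 Further: antagonist potency against angiotensin II stimulated AT1 response.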 The class given is functional.
A short description of test [17]: growth suppression of beta-catenin-knockout colon cells, dose response, cell-based, HCT116, human colon tumor (AID 1045).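 Further: HCT116 colon tumor cells with beta catenin knocked out; cells exposed to compound for 60 hours.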 It counts as functional.
Test [18] in a line: growth suppression of PTEN-null colon cells, dose response, cell-based, HCT116 PTEN knockout (AID 1047).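 Further: HCT116 colon tumor cells with PTEN knocked out; cells exposed to compound for 60 hours before readout; potency for loss of cell viability measured by luminescence.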 The class given is functional.
Test [19] relates to Vero. Nature of the test: cells. It counts as functional, cell-based. As to conditions: Chlorocebus sabaeus.

Beta-2 adrenergic receptor, sequence (P07550 whole entry): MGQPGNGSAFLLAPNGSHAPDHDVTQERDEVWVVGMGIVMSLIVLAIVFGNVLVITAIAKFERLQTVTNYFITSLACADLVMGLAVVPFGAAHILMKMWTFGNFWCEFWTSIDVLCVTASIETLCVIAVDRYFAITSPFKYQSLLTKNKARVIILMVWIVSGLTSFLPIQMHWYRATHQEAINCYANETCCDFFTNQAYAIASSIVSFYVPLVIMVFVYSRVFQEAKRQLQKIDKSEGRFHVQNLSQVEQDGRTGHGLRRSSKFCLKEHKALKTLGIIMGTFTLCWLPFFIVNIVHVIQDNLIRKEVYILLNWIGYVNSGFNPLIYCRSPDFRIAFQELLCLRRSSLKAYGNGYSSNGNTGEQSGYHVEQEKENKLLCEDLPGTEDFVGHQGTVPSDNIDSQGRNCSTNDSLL
ATP-dependent molecular chaperone HSP82, sequence (C4YTQ8 whole entry): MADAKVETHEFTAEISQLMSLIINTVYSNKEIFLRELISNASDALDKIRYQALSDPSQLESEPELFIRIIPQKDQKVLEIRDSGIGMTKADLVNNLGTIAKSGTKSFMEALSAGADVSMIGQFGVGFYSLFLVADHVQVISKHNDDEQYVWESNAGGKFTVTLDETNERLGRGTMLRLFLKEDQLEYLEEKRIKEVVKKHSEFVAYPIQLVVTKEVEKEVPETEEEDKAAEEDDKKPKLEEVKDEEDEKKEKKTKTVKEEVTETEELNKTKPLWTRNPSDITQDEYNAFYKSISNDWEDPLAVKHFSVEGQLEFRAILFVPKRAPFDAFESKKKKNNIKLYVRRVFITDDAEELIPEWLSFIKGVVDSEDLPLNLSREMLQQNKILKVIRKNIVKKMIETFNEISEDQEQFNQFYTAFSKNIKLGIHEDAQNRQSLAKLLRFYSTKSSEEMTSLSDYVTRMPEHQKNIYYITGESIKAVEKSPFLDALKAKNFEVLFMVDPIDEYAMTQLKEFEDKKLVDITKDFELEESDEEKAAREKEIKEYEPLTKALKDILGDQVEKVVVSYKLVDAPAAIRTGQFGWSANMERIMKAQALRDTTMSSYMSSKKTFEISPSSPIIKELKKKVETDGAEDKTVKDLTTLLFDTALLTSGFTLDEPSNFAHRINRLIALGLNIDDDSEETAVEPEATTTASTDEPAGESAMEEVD
Serine/threonine-protein phosphatase, sequence (B9W6M3 whole entry): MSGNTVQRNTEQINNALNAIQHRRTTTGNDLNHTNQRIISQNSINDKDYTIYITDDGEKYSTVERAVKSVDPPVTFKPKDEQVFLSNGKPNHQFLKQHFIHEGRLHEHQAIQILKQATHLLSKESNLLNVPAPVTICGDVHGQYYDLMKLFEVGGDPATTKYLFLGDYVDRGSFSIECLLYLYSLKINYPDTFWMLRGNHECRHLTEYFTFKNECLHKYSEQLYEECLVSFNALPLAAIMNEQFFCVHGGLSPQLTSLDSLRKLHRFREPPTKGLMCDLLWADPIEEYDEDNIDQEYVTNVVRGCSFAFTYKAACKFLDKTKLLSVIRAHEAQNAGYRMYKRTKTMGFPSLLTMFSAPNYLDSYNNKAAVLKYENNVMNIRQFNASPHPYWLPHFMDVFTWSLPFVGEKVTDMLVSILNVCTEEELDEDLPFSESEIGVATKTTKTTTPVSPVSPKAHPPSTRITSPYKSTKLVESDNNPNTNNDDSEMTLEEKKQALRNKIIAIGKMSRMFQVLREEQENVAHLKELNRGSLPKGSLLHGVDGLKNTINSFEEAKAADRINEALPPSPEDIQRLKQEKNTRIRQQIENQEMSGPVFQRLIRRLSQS
CAAX prenyl protease 2 (Homo sapiens, UniProt Q9Y256), sequence (Q9Y256 whole entry): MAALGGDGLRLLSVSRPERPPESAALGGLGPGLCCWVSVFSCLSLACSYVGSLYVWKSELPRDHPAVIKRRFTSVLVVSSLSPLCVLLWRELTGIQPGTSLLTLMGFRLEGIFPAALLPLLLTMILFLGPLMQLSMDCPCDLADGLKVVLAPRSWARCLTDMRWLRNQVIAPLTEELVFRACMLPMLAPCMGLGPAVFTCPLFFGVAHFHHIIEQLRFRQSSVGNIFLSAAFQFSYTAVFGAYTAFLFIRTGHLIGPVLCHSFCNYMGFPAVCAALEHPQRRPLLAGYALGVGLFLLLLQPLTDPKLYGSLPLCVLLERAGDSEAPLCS
CAAX prenyl protease 2 (Saccharomyces cerevisiae S288c, UniProt Q03530), sequence (Q03530 whole entry): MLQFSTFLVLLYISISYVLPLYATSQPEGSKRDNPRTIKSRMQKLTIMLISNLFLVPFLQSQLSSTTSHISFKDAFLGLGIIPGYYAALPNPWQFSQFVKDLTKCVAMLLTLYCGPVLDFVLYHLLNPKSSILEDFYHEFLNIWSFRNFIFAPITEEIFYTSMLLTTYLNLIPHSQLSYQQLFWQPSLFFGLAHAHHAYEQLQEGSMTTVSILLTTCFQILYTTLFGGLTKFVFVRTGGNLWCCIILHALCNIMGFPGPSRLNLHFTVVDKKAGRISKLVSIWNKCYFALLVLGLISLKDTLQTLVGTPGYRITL
Type-1 angiotensin II receptor, sequence (P30556 whole entry): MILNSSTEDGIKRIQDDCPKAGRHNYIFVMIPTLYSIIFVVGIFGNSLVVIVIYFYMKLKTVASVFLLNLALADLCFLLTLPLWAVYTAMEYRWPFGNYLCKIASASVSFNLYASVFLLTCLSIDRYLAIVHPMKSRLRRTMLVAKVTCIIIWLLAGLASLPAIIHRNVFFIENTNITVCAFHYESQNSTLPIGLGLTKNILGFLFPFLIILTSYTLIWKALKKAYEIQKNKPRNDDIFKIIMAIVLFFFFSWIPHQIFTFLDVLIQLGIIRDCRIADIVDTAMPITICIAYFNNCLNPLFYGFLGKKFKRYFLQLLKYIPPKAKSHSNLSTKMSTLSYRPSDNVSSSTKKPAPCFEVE
Beta-galactosidase, sequence (Q8VNN2 whole entry): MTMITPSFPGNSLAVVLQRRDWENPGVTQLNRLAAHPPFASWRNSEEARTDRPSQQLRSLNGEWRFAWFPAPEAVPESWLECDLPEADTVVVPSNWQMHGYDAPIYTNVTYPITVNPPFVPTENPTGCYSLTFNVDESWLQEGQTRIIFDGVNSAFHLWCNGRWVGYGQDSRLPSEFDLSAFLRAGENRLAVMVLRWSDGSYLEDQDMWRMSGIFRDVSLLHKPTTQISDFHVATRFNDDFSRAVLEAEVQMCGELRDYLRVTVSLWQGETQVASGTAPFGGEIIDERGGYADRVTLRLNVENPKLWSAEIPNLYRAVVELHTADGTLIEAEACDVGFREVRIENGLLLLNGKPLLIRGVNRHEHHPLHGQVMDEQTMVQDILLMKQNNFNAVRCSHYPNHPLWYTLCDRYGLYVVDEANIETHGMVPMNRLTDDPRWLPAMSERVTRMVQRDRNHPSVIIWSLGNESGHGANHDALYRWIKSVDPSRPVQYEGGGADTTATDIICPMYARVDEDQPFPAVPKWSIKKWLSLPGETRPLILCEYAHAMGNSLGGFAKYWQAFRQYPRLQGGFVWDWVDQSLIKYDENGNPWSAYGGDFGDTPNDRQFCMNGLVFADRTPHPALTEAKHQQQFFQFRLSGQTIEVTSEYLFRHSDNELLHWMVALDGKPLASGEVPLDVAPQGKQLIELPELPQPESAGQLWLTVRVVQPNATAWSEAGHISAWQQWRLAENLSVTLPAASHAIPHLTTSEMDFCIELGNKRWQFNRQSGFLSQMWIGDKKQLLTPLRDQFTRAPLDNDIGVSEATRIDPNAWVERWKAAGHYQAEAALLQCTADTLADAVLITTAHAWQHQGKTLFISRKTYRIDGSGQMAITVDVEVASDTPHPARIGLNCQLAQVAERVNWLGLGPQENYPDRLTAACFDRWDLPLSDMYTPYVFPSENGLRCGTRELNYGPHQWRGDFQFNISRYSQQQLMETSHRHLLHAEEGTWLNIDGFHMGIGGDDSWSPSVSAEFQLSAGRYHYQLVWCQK

`CC1CC2(C)Oc3ccccc3CC2C(C)C1CNCCCN(C)C` (configuration not stated): the concentration for a half-maximal effect (EC50) in test [1], in test [3] and in [4] was > 120 µM (not active) each time. Moreover, the AC50 – broadly, the concentration giving half of the maximal activity seen – in [2] is 29.8 µM (active).
Consider `Cc1ccc(OCc2cc(C(=O)NCc3cnn(-c4cccc(F)c4)c3)no2)cn1`, for which the values for the EC50 in test [5], in [6] and in test [7] were > 160 µM (inactive), 0.195 µM (active) and 0.964 µM (active), respectively.
Take `O=C(OC[C@@H]1CCCN2CCCC[C@H]12)c1cc2ccccc2oc1=O`: the results for the AC50 in test [8] and in test [9] were 16.3 µM (active) and 55.9 µM (active), respectively.
As for `CCc1ccc(C2c3[nH]c4ccccc4c3CCN2C(=O)c2ccc(=O)n(C)n2)cc1` (configuration not stated), the concentration for a half-maximal effect (EC50) – broadly, the concentration needed to bring the measured effect to its halfway point – in [5] is > 160 µM (inconclusive); in test [11], > 160 µM (inactive); in test [12], > 180 µM (inactive); in test [7], 0.223 µM (active). Moreover, the CC50 in test [10] was > 40 µM (active).
With `CCn1c(COc2ccc(Cl)cc2)nnc1SCc1ccc(C#N)cc1`, in test [6], the EC50 was 2.11 µM (active).
Consider `O=C(O)c1ccc(N/N=C/C2=Cc3ccccc3OC2)cc1`, for which the IC50 in test [13] and in test [14] was > 67.6 µM (inactive) in each case.
As to `COc1ccc(NS(=O)(=O)c2cc([N+](=O)[O-])ccc2N/N=C\c2c(C)[nH]c3ccccc23)cc1`, the EC50 is > 40 µM (inactive) in test [15], 19.9 µM (active) in test [17] and 17.6 µM (active) in [18]. In addition, the IC50 (usually the concentration at which inhibition is half-maximal) in test [16] is > 40 µM (not active).
With `COc1cccc2sc(N(CCCN(C)C)C(=O)c3ccc(S(=O)(=O)N4CCCc5ccccc54)cc3)nc12`, the concentration for half-maximal inhibition (IC50) in test [19] was 24.6 µM (active).
